Test results from PMC6691772, “Novel phthalimide based analogues: design, synthesis, biological evaluation, and molecular docking studies” (Journal of Enzyme Inhibition and Medicinal Chemistry, 2019).
Converted amounts (≈) assume the structure as drawn.

Key:
B. subtilis RCMB 010067 [1] = test: Agar well diffusion, inhibition zone; type: cell-based, Bacillus subtilis; parameters: key to Mean diameter of inhibition zone (Mean ± SEM): –: -: No activity under the screening conditions; conditions: mean of three values; for zone of inhibition at 1000 µg/mL: Bacillus subtilis, RCMB010067, 1 mg/mL, read-out: Mean diameter of inhibition zone (Mean ± SEM); for Mean diameter of inhibition zone (Mean ± SEM): 1 mg/mL
C. albicans RCMB 005036 = test: Agar well diffusion, inhibition zone; type: cell-based, Candida albicans; parameters: key: –: -: No activity under the screening conditions; conditions: 1 mg/mL, mean of three values
[2] = tested on: (THLE-2) normal liver cell line; test: Cytotoxic screening on normal liver cells; type: cell-based; conditions: Homo sapiens, mean of three values, read-out: IC50 (Mean ± SEM)
[3] = tested on: P. aeruginosa RCMB 010043; test: Minimum inhibitory concentration, modified agar well diffusion; type: cell-based; conditions: Pseudomonas aeruginosa, RCMB010043, mean of three values, read-out: MIC (Mean ± SEM)
E. coli RCMB 010052 [4] = test: as above; type: cell-based; conditions: Escherichia coli, RCMB010052, mean of three values, read-out: MIC (Mean ± SEM)
E. coli RCMB 010052 [5] = test: Agar well diffusion, inhibition zone; type: cell-based, Escherichia coli; parameters: key to Mean diameter of inhibition zone (Mean ± SEM): –: -: No activity under the screening conditions; conditions: mean of three values; for zone of inhibition at 1000 µg/mL: Escherichia coli, RCMB010052, 1 mg/mL, read-out: Mean diameter of inhibition zone (Mean ± SEM); for Mean diameter of inhibition zone (Mean ± SEM): 1 mg/mL
[6] = tested on: human liver cancer cell line (HepG-2); test: MTT anticancer assay; type: cell-based; conditions: HepG2, HePG-2 cancer liver cell line, mean of three values, read-out: IC50 (Mean ± SEM)
A. fumigatus RCMB 002568 [7] = test: Minimum inhibitory concentration, modified agar well diffusion; type: cell-based; conditions: Aspergillus fumigatus, RCMB002568, mean of three values, read-out: MIC (Mean ± SEM)
S. pneumonia RCMB 010010 [8] = test: as above; type: cell-based; conditions: Streptococcus pneumoniae, RCMB010010, mean of three values, read-out: MIC (Mean ± SEM)
[9] = tested on: P. aeruginosa RCMB 010043; test: Agar well diffusion, inhibition zone; type: cell-based, Pseudomonas aeruginosa; parameters: key to Mean diameter of inhibition zone (Mean ± SEM): –: -: No activity under the screening conditions; conditions: mean of three values; for zone of inhibition at 1000 µg/mL: Pseudomonas aeruginosa, RCMB010043, 1 mg/mL, read-out: Mean diameter of inhibition zone (Mean ± SEM); for Mean diameter of inhibition zone (Mean ± SEM): 1 mg/mL
A. fumigatus RCMB 002568 [10] = test: Agar well diffusion, inhibition zone; type: cell-based, Aspergillus fumigatus; parameters: key to Mean diameter of inhibition zone (Mean ± SEM): –: -: No activity under the screening conditions; conditions: mean of three values; for zone of inhibition at 1000 µg/mL: Aspergillus fumigatus, RCMB002568, 1 mg/mL, read-out: Mean diameter of inhibition zone (Mean ± SEM); for Mean diameter of inhibition zone (Mean ± SEM): 1 mg/mL
S. pneumonia RCMB 010010 [11] = test: Agar well diffusion, inhibition zone; type: cell-based, Streptococcus pneumoniae; parameters: key to Mean diameter of inhibition zone (Mean ± SEM): –: -: No activity under the screening conditions; conditions: mean of three values; for zone of inhibition at 1000 µg/mL: Streptococcus pneumoniae, RCMB010010, 1 mg/mL, read-out: Mean diameter of inhibition zone (Mean ± SEM); for Mean diameter of inhibition zone (Mean ± SEM): 1 mg/mL
B. subtilis RCMB 010067 [12] = test: Minimum inhibitory concentration, modified agar well diffusion; type: cell-based; conditions: Bacillus subtilis, RCMB010067, mean of three values, read-out: MIC (Mean ± SEM)
E. coli DNA gyrase B = E. coli DNA gyrase B (Escherichia coli, UniProt P0AES6); test: In-vitro enzyme assay on DNA gyrase B; type: biochemical
VEGFR-2 = VEGFR-2 (Homo sapiens, UniProt P35968); test: In-vitro enzyme assay on VEGFR-2; type: biochemical; conditions: read-out: IC50 (Mean ± SEM)
Chain of VEGFR-2 (P35968 20-1356): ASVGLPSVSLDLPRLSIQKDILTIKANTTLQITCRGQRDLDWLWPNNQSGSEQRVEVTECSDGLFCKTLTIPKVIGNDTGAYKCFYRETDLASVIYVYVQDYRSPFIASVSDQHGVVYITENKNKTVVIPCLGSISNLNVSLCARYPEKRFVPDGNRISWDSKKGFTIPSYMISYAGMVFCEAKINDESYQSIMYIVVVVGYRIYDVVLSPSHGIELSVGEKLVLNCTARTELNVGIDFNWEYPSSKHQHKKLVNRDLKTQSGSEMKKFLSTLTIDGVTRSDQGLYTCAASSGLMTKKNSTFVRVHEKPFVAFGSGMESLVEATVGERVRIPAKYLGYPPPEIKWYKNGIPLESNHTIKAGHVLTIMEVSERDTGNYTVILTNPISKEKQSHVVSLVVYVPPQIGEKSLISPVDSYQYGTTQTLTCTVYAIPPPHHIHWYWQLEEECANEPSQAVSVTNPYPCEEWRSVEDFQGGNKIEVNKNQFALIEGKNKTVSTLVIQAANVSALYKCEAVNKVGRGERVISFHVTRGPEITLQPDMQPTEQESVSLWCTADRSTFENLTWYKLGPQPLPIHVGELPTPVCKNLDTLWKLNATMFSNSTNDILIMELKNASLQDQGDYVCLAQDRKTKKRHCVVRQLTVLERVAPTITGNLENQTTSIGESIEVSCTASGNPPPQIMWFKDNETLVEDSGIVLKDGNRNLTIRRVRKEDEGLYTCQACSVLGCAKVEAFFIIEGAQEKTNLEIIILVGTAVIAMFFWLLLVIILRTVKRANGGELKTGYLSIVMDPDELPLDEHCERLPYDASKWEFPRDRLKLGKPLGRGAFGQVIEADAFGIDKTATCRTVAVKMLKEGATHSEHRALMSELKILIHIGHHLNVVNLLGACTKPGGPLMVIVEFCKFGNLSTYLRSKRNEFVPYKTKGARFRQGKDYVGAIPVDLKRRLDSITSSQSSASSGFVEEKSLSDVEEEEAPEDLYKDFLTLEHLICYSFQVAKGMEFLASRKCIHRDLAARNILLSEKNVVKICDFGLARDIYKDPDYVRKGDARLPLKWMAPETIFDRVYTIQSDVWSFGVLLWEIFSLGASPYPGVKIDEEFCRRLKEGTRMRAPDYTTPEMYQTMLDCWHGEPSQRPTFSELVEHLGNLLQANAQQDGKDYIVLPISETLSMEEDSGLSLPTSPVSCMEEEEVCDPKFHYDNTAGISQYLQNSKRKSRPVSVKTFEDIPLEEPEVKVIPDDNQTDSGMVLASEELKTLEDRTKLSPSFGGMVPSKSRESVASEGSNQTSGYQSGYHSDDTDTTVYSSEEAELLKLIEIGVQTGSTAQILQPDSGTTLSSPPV

[13] = tested on: tested bacterial and fungal strains; test: Antimicrobial screening, summary over all tested strains; type: cell-based; conditions: 1 mg/mL
From the text: All bacterial and fungal strains were received from the culture collection of the Regional Center for Mycology and Biotechnology (RCMB), Al-Azhar University, Cairo, Egypt. All target derivatives were screened in-vitro opposite to various kinds of bacteria, Gram-positive bacteria (Streptococcus pneumoniae and Bacillus subtilis) and Gram-negative bacteria (Pseudomonas aeruginosa and Escherichia coli) and for their Antifungal activities against Aspergillus fumigatus and Candida albicans, respectively. Ampicillin and gentamycin were used as standard antibacterial drugs while amphotericin B was used as reference antifungal drug. The diameter of inhibition zone (mm) was measured for the biological activity using the diffusion technique. The promising compounds were further investigated to evaluate their antimicrobial activity expressed in terms of minimum inhibitory concentration (MIC) using the modified agar well diffusion method.
The newly prepared targets were subjected for in-vitro antibacterial screening against Gram-positive bacteria (Streptococcus pneumonia and Bacillus subtilis) and Gram-negative bacteria (Pseudomonas aeruginosa and Escherichia coli). […] The compounds’ solutions of concentrations (1 mg/mL) were evaluated against the different microorganism’s and the inhibition zone (IZ) used diameter in mm for the biologically activity (agar well diffusion method).

Compound	zone of inhibition at 1000 µg/mL (B. subtilis RCMB 010067 [1]) [mm]	melting point [°C]	Mean diameter of inhibition zone (Mean ± SEM) (C. albicans RCMB 005036)	IC50 [2] [µg/mL]	MIC [3] [µg/mL]	MIC (E. coli RCMB 010052 [4]) [µg/mL]	zone of inhibition at 1000 µg/mL (E. coli RCMB 010052 [5]) [mm]	IC50 [6] [µg/mL]	MIC (A. fumigatus RCMB 002568 [7]) [µg/mL]	MIC (S. pneumonia RCMB 010010 [8]) [µg/mL]	zone of inhibition at 1000 µg/mL [9] [mm]	zone of inhibition at 1000 µg/mL (A. fumigatus RCMB 002568 [10]) [mm]	zone of inhibition at 1000 µg/mL (S. pneumonia RCMB 010010 [11]) [mm]	MIC (B. subtilis RCMB 010067 [12]) [µg/mL]	further results
N#Cc1nnc2c(N=NN3C(=O)c4ccccc4C3=O)c(O)nn2c1N [Compound 16, 4-Amino-8-[(1,3-dioxo-1,3-dihydro-2H-isoindol-2-yl)diazenyl]-7-hydroxy-pyrazolo[5,1-c][1,2,4]triazine-3-carbonitrile]	18.8 ± 1.4	320	–	820.58 ± 0.18 (≈ 2350 µM)	15.6 ± 1.25 (≈ 44.8 µM)	1.95 ± 1.49 (≈ 5.58 µM)	23.7 ± 0.7	7.5 ± 0.84 (≈ 21.5 µM)	3.9 ± 0.39 (≈ 11.2 µM)	3.9 ± 1.24 (≈ 11.2 µM)	18.1 ± 0.6	22.9 ± 1.3	22.8 ± 0.7	7.81 ± 1.16 (≈ 22.4 µM)	
NC1=NNC(=O)C1=NNN1C(=O)c2ccccc2C1=O [Compound 4, 2-(2-(3-Amino-5-oxo-1H-pyrazol-4(5H)-ylidene)hydrazinyl)isoindoline-1,3-dione]	25.1 ± 0.5	289 to 290	–	874.31 ± 0.22 (≈ 3210 µM)	0.98 ± 0.02 (≈ 3.6 µM)	0.49 ± 0.39 (≈ 1.8 µM)	24.5 ± 0.3	4.22 ± 1.04 (≈ 15.5 µM)	1.95 ± 0.28 (≈ 7.16 µM)	1.95 ± 0.23 (≈ 7.16 µM)	19.2 ± 0.5	23.1 ± 0.5	23 ± 0.4	0.98 ± 0.42 (≈ 3.6 µM)	IC50 (E. coli DNA gyrase B): 0.34 ± 0.63 µM; IC50 (VEGFR-2): 0.09 µM
N#Cc1cnc2c(N=NN3C(=O)c4ccccc4C3=O)c(O)nn2c1N [Compound 12, 7-Amino-3-[(1,3-dioxo-1,3-dihydro-2H-isoindol-2-yl)diazenyl]-2-hydroxy-pyrazolo[1,5-a]pyrimidine-6-carbonitrile]	24.3 ± 0.6	302	–	793.56 ± 0.31 (≈ 2280 µM)	62.5 ± 1.06 (≈ 179 µM)	3.9 ± 0.03 (≈ 11.2 µM)	21.8 ± 1.3	9.11 ± 1.02 (≈ 26.2 µM)	3.9 ± 1 (≈ 11.2 µM)	7.81 ± 1.01 (≈ 22.4 µM)	15.8 ± 1.5	20.7 ± 1.2	18.6 ± 1.2	0.98 ± 1.18 (≈ 2.81 µM)	
CCOC(=O)c1nnc2c(N=NN3C(=O)c4ccccc4C3=O)c(O)nn2c1C [Compound 17, Ethyl 8-[(1,3-dioxo-1,3-dihydro-2H-isoindol-2-yl)diazenyl]-7-hydroxy-4-methyl-pyrazolo[5,1-c][1,2,4]triazine-3-carboxylate]	20.2 ± 1.2	> 300	–	658.13 ± 0.25 (≈ 1660 µM)	62.5 ± 0.71 (≈ 158 µM)	3.9 ± 1.24 (≈ 9.87 µM)	20.5 ± 1.3	9.92 ± 1.28 (≈ 25.1 µM)	15.6 ± 1.05 (≈ 39.5 µM)	3.9 ± 0.01 (≈ 9.87 µM)	15.5 ± 1.2	16.9 ± 1.2	21.9 ± 1.2	3.9 ± 1.38 (≈ 9.87 µM)	
Nc1c(C(=O)c2ccccc2)cnc2c(N=NN3C(=O)c4ccccc4C3=O)c(O)nn12 [Compound 14, 2-[(7-Amino-6-benzoyl-2-hydroxypyrazolo[1,5-a]pyrimidin-3-yl)diazenyl]-1H-isoindole-1,3(2H)-dione]		295 to 297	–	725.44 ± 0.15 (≈ 1700 µM)				34.8 ± 1.26 (≈ 81.4 µM)							Mean diameter of inhibition zone (Mean ± SEM) (B. subtilis RCMB 010067 [1]): –; Mean diameter of inhibition zone (Mean ± SEM) (E. coli RCMB 010052 [5]): –; antimicrobial activity, overall [13]: no antimicrobial activities; Mean diameter of inhibition zone (Mean ± SEM) [9]: –; Mean diameter of inhibition zone (Mean ± SEM) (A. fumigatus RCMB 002568 [10]): –; Mean diameter of inhibition zone (Mean ± SEM) (S. pneumonia RCMB 010010 [11]): –
CSc1c(C#N)c(N)nc2c(N=NN3C(=O)c4ccccc4C3=O)c(O)nn12 [Compound 9, 5-Amino-3-((1,3-dioxo-1,3-dihydro-2H-isoindol-2-yl)diazenyl)-2-hydroxy-7-(methylthio)pyrazolo[1,5-a]pyrimidine-6-carbonitrile]	23.2 ± 1.5	210 to 211	–	754.31 ± 0.2 (≈ 1910 µM)	15.6 ± 0.26 (≈ 39.6 µM)	0.49 ± 1.08 (≈ 1.24 µM)	24 ± 1.3	5.6 ± 1.57 (≈ 14.2 µM)	1.95 ± 0.34 (≈ 4.94 µM)	3.9 ± 0.2 (≈ 9.89 µM)	17.2 ± 1.3	16.6 ± 1.3	22.2 ± 0.6	1.95 ± 1.3 (≈ 4.94 µM)	
O=C1Cn2nc(O)c(N=NN3C(=O)c4ccccc4C3=O)c2N1 [Compound 5, 2-((6-Hydroxy-2-oxo-2,3-dihydro-1H-imidazo[1,2-b]pyrazol-7-yl)diazenyl)-isoindoline-1,3-dione]		157 to 158	–	597.83 ± 0.14 (≈ 1910 µM)				31.8 ± 1.56 (≈ 102 µM)							Mean diameter of inhibition zone (Mean ± SEM) (B. subtilis RCMB 010067 [1]): –; Mean diameter of inhibition zone (Mean ± SEM) (E. coli RCMB 010052 [5]): –; antimicrobial activity, overall [13]: no antimicrobial activities; Mean diameter of inhibition zone (Mean ± SEM) [9]: –; Mean diameter of inhibition zone (Mean ± SEM) (A. fumigatus RCMB 002568 [10]): –; Mean diameter of inhibition zone (Mean ± SEM) (S. pneumonia RCMB 010010 [11]): –
